Source: patent US20210255193A1, “LYSINE REACTIVE PROBES AND USES THEREOF” (The Scripps Research Institute, priority 2017, published 2021)

Assays:
Assay in all cases: competitive isoTOP-ABPP
[1] = target: T1, DYNC1H1 Cytoplasmic dynein 1 heavy chain 1 (Homo sapiens, UniProt Q14204); type: binding; conditions: 50 uM, 231 sol, in vitro; for R value (DMSO/fragment) for probe 1 labeling: Q14204_K1649
T1 construct: isoTOP-ABPP experiments performed in cell lysates (in vitro); endogenous in cells; host or cells: soluble proteome of human cancer cell lines (MDA-MB-231, Ramos, Jurkat)
Method in brief: (§1)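 Probe: STP-alkyne, 0.1 mM, 1 h RT, after fragment pretreatment of lysate (esters 50 μM; guanidinylators 100 μM). Tags: light = compound, heavy = DMSO, via CuAAC. Replicates averaged if SD <60% of mean; otherwise lowest ratio used when any R <4.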

[2] = target: T2, NPEPPS Puromycin-sensitive aminopeptidase (Homo sapiens, UniProt P55786); type: binding; conditions: 50 uM, 231 sol, in vitro; for R value (DMSO/fragment) for probe 1 labeling: P55786_K712
T2 construct: isoTOP-ABPP experiments performed in cell lysates (in vitro); endogenous in cells; host or cells: soluble proteome of human cancer cell lines (MDA-MB-231, Ramos, Jurkat)
Method in brief: as §1

[3] = target: T3, PNPO Pyridoxine-5-phosphate oxidase (Homo sapiens, UniProt Q9NVS9); type: binding; conditions: 50 uM, 231 sol, in vitro; for R value (DMSO/fragment) for probe 1 labeling: Q9NVS9_K100
T3 construct: endogenous in cells; host or cells: MDA-MB-231 (soluble fraction of lysate)
T3 sequence (Q9NVS9 1-261): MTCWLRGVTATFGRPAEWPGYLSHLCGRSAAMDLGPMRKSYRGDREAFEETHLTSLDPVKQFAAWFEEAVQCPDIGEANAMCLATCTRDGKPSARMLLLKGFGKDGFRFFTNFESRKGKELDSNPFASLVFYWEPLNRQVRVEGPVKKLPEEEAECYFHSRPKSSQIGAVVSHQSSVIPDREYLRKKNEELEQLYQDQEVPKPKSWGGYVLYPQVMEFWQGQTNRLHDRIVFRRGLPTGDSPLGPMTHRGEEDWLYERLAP
Method in brief: as §1

ADK Adenosine kinase = target: T4, ADK Adenosine kinase (Homo sapiens, UniProt P55263); type: binding; set-up: key to isoTOP-ABPP reactivity ratio at lysine P55263_K88: R = MS1 peak area ratio, DMSO (heavy) / compound-treated (light); conditions: 50 uM, 231 sol, in vitro; for R value (DMSO/fragment) for probe 1 labeling: P55263_K88
T4 construct: isoTOP-ABPP experiments performed in cell lysates (in vitro); endogenous in cells; host or cells: soluble proteome of human cancer cell lines (MDA-MB-231, Ramos, Jurkat)
Procedure: (§2) In vitro covalent fragment treatment for isoTOP-ABPP. All compounds were made up as solutions in DMSO (100×) and were used at a final concentration of 50 μM for activated esters and 100 μM for guanidinylating agents. For each profiling sample, 0.5 ml of lysate was treated with 5 μl of the 100× compound stock solution or 5 μl of DMSO. Samples were treated with activated esters for
(§3) STP-alkyne labeling and click chemistry. For concentration-dependent reactivity measurements by isoTOP-ABPP, 0.5 ml proteome aliquots were treated at ambient temperature with 1 mM STP-alkyne 1 (5 μl of 100 mM stock in DMSO) and 0.1 mM STP alkyne 1 (5 μl of 10 mM stock in DMSO), respectively. For competitive isoTOP-ABPP, after in vitro fragment treatment (detailed above), the samples were labeled for 1 h at ambient temperature with 0.1 mM STP-alkyne 1 (5 μl of 10 mM stock in DMSO). Samples were conjugated by copper-mediated azide-alkyne cycloaddition (CuAAC) to either the light (1 mM STP-alkyne or fragment treated) or heavy (0.1 mM STP-alkyne or DMSO treated) TEV tags (10 μl of 5 mM stocks in DMSO, final concentration=100 μM) using tris(2-carboxyethyl)phosphine hydrochloride
(§4) R value calculation and processing. The ratios of light and heavy MS1 peaks for each unique peptide were quantified with a CIMAGE software using default parameters (3 MS1 acquisitions per peak and signal to noise threshold set to 2.5). For reactivity measurements by isoTOP-ABPP, the R value was calculated from the ratio of MS1 peak areas, comparing the 1 mM STP alkyne sample (light TEV tag) with the 0.1 mM STP alkyne sample (heavy TEV tag). For competitive isoTOP-ABPP, the R value was calculated from the ratio of MS1 peak areas, comparing the DMSO treated sample (heavy TEV tag) with the compound treated sample (light TEV tag). […] Ratios for unique peptide entries are calculated for each experiment; overlapping peptides with the same modified lysine (for example, different charge states, MudPIT chromatographic steps or tryptic termini) are grouped together and the median ratio is reported as the final ratio (R). The peptide ratios reported by CIMAGE were further filtered to ensure the removal or correction of low-quality ratios in each individual data set. The quality filters applied were the following: removal of half tryptic peptides; for ratios with high standard deviations from the median (90% of the median or above) the lowest ratio was taken instead of the median; removal of peptides with R=20 and only a single MS2 event triggered during the elution of the parent ion; manual annotation of all the peptides with ratios of 20, removing any peptides with low quality elution profiles that remained after the previous curation steps (only done for competitive isoTOP-ABPP).
(§5) Cross-data processing for fragment screening. For compound treated samples, biological replicates of the same condition were averaged, if the standard deviation was below 60% of the mean; otherwise, for lysines with at least one R value <4 for a particular compound, the lowest value of the ratio set was taken. For lysines, where all R values for a particular compound were ≥4, the average was reported. For peptides containing several possible modified lysines, the lysine with the highest number of quantification events was used for analysis and the remaining, redundant peptides were reported as alternative modification sites. Peptides included in the aggregate dataset (those used for further bioinformatics and statistical analyses) were required to have been quantified in 2 experiments for competitive isoTOP-ABPP. Lysines were categorized as liganded, if they had at least one ratio R≥4 (hit fragments). For liganded lysines with R=20 for all liganding events, lysines were required to have been quantified with R=20 in two separate experiments and were further required to have been quantified with R<20 in one additional experiment.

[4] = target: T5, NONO Non-POU domain-containing octamer-binding protein (Homo sapiens, UniProt Q15233); conditions: 50 uM, 231 sol, in vitro; for R value (DMSO/fragment) for probe 1 labeling: Q15233_K467
T5 construct: isoTOP-ABPP experiments performed in cell lysates (in vitro); endogenous in cells; host or cells: soluble proteome of human cancer cell lines (MDA-MB-231; Ramos and Jurkat also prepared)
T5 sequence (Q15233 1-471): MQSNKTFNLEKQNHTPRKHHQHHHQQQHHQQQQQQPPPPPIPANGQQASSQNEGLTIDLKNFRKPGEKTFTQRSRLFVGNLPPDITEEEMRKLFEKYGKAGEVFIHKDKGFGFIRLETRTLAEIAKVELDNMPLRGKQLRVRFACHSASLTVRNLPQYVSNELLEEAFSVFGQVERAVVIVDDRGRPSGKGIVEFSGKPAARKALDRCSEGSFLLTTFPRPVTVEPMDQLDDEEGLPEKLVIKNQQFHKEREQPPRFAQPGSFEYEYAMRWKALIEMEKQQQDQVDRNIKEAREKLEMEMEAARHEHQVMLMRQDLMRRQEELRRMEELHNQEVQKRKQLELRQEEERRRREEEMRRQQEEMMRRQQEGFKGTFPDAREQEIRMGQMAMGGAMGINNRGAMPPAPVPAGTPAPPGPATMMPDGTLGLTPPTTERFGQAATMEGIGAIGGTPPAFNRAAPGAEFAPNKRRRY
Method in brief: as §1

[5] = target: T6, PSME3 Proteasome activator complex subunit 3 (Homo sapiens, UniProt P61289); type: binding; set-up: key to isoTOP-ABPP reactivity ratio at lysine P61289_K237: R = MS1 peak area ratio, DMSO (heavy) / compound-treated (light); key to isoTOP-ABPP reactivity ratio at lysine P61289_K12: R = MS1 peak area ratio, DMSO (heavy) / compound-treated (light); capped at 20; conditions: 50 uM, 231 sol, in vitro
T6 construct: isoTOP-ABPP experiments performed in cell lysates (in vitro); endogenous in cells; host or cells: soluble proteome of human cancer cell lines (MDA-MB-231, Ramos, Jurkat)
Procedure: as §2, §3, §4, §5

T6 sequence (P61289 whole entry, one chain of several): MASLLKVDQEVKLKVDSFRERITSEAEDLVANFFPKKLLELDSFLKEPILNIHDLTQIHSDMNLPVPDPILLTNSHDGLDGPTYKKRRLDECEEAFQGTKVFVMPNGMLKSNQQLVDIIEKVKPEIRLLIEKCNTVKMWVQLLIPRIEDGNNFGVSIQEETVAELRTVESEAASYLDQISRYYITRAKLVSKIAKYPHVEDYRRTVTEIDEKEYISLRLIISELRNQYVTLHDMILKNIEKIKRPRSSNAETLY
T4 sequence (P55263 whole entry, the tested form may be a part): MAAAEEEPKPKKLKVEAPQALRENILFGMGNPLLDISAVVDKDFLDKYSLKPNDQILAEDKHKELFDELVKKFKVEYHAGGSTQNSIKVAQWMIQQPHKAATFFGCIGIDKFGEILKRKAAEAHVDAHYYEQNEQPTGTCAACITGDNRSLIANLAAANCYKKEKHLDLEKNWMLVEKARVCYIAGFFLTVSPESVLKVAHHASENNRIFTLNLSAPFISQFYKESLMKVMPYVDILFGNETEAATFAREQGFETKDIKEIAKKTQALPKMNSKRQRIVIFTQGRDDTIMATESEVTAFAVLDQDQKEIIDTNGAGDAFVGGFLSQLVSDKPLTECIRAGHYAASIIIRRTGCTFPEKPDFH
T2 sequence (P55786 whole entry, the tested form may be a part): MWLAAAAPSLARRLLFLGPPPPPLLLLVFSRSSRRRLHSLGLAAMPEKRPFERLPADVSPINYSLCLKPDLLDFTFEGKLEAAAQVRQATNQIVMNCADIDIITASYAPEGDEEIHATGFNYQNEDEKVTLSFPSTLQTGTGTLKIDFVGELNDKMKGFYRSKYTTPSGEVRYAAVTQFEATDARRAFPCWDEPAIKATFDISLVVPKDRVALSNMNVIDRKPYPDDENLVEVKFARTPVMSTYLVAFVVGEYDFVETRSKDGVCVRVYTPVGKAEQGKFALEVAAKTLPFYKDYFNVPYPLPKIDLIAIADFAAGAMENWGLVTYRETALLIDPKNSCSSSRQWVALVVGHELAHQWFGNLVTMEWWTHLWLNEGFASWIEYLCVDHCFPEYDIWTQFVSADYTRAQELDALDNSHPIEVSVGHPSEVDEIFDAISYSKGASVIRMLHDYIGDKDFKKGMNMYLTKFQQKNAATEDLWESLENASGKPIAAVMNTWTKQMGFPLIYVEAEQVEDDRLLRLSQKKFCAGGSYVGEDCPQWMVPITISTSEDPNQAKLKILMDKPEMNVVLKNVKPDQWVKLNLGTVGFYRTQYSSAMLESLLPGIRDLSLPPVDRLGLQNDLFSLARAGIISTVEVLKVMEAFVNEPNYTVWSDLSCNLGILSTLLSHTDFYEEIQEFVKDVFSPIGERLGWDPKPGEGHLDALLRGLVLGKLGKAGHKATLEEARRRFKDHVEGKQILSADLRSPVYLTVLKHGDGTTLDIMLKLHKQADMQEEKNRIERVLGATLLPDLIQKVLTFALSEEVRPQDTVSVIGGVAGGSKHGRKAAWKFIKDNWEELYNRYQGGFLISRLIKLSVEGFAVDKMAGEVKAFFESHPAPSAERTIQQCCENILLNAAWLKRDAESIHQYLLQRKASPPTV

Structure (SMILES)	R value (DMSO/fragment) for probe 1 labeling [1]	R value (DMSO/fragment) for probe 1 labeling [2]	R value (DMSO/fragment) for probe 1 labeling [3]	R value (DMSO/fragment) for probe 1 labeling (ADK Adenosine kinase)	R value (DMSO/fragment) for probe 1 labeling [4]	R value (DMSO/fragment) for probe 1 labeling ([5]; P61289_K12)	R value (DMSO/fragment) for probe 1 labeling ([5]; P61289_K237)	isoTOP-ABPP reactivity ratio at lysine Q14204_K1649 [1]	isoTOP-ABPP reactivity ratio at lysine P55786_K712 [2]	isoTOP-ABPP reactivity ratio at lysine Q9NVS9_K100 [3]	isoTOP-ABPP reactivity ratio at lysine P55263_K88 (ADK Adenosine kinase)	isoTOP-ABPP reactivity ratio at lysine Q15233_K467 [4]	isoTOP-ABPP reactivity ratio at lysine P61289_K237 [5]	isoTOP-ABPP reactivity ratio at lysine P61289_K12 [5]
O=C(Oc1c(F)c(F)c(F)c(F)c1F)C(c1ccccc1)c1ccccc1 [fragment 20, Pentafluorophenyl 2,2-diphenylacetate]	1.0	0.9	0.9	0.8	1.2	0.9	0.9							
O=C(Oc1c(F)c(F)c(F)c(F)c1F)c1cc(C(F)(F)F)cc(C(F)(F)F)c1 [fragment 21, Pentafluorophenyl 3,5-bis(trifluoromethyl)benzoate]	1.4	0.9	0.9	0.8	1.5	1.0	0.9							
O=C(Oc1c(F)c(F)c(F)c(F)c1F)C1CCN(C(=O)OCc2ccccc2)CC1 [fragment 24, 1-Benzyl 4-(pentafluorophenyl) piperidine-1,4-dicarboxylate]								1.3	1.0	0.9	1.0	1.0	0.2	
Cn1cc(CC(=O)Oc2ccc([N+](=O)[O-])cc2[N+](=O)[O-])c2ccccc21 [fragment 32, 2,4-Dinitrophenyl 2-(1-methyl-1H-indol-3-yl)acetate]								1.2	1.4	3.6	1.4	1.2	5.1	4.7
